{
  "source": "PubChem BioAssay AID272",
  "about": "(DTP/NCI, 2004)",
  "system": "Lewis lung carcinoma i.m., BDF1 mice, T/C %",
  "test": "NCI In Vivo Anticancer Drug Screen. Data for tumor model Lewis Lung Carcinoma (intramuscular) in B6D2F1 (BDF1) mice",
  "settings": "schedule: Q01DX011 (ip)",
  "in_short": "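Transplantable tumour model; readout survival or tumour size; value = treated (T) / vehicle control (C).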",
  "note": "Results filed as inconclusive are left out.",
  "data": [
    {"smiles": "O=[As]O", "values": [
      {"measurement": "T/C", "setting": "endpoint: mean tumor weight, dose: 2.0 mg/kg/injection, vehicle: saline, higher = larger tumour", "result": "64 % of control"},
      {"measurement": "T/C", "setting": "endpoint: median survival time, dose: 2.0 mg/kg/injection, vehicle: saline, higher = longer survival", "result": "110 % of control"}
    ]},
    {"smiles": "CS(=O)(=O)OCC(O)C(O)COS(C)(=O)=O", "note": "(stereo not given)", "values": [
      {"measurement": "T/C", "setting": "endpoint: median survival time, dose: 100.0 mg/kg/injection, vehicle: saline, higher = longer survival", "result": "100 % of control"},
      {"measurement": "T/C", "setting": "endpoint: median survival time, dose: 400.0 mg/kg/injection, vehicle: saline, higher = longer survival", "result": "100 % of control"}
    ]},
    {"smiles": "COc1cc(C(=O)OC2CC34CCNC35CC(OC5(OC)C2O)c2cc3c(cc24)OCO3)ccc1O", "note": "(stereo not given)", "values": [
      {"measurement": "T/C", "setting": "endpoint: mean tumor weight, dose: 1.0 mg/kg/injection, vehicle: carboxymethylcellulose (CMC), higher = larger tumour", "result": "81 % of control"},
      {"measurement": "T/C", "setting": "endpoint: mean tumor weight, dose: 2.0 mg/kg/injection, vehicle: carboxymethylcellulose (CMC), higher = larger tumour", "result": "70 % of control"},
      {"measurement": "T/C", "setting": "endpoint: mean tumor weight, dose: 4.0 mg/kg/injection, vehicle: carboxymethylcellulose (CMC), higher = larger tumour", "result": "49 % of control"},
      {"measurement": "T/C", "setting": "endpoint: median survival time, dose: 2.0 mg/kg/injection, vehicle: carboxymethylcellulose (CMC), higher = longer survival", "result": "91 % of control"},
      {"measurement": "T/C", "setting": "endpoint: median survival time, dose: 4.0 mg/kg/injection, vehicle: carboxymethylcellulose (CMC), higher = longer survival", "result": "86 % of control"}
    ]},
    {"smiles": "CC(C)(C)CC(C)(C)NCC(O)COc1ccc(C(C)(C)c2ccc(OCC(O)CNC(C)(C)CC(C)(C)C)cc2)cc1", "note": "(stereo not given)", "values": [
      {"measurement": "T/C", "setting": "endpoint: mean tumor weight (est.), dose: 3.12 mg/kg/injection, vehicle: other, higher = larger tumour", "result": "68 % of control"}
    ]}
  ]
}
